Test results taken from US20110297235A1, “USE OF TRIARYLAMINE DERIVATIVES AS HOLE-CONDUCTING MATERIALS IN ORGANIC SOLAR CELLS AND ORGANIC SOLAR CELLS CONTAINING SAID TRIARYLAMINE DERIVATIVES” (BASF SE, priority 2009, published 2011).
In brackets after ≈: the same amount, converted by molar mass.

How the values were obtained:
[1] = Glass transition temperature Tg and morphology M by means of DSC; type: physicochemical
[2] = Decomposition temperature Td by means of TGA; type: physicochemical
physchem = conditions: organic solvent or mixture

| Structure (SMILES) | glass transition temperature Tg [1] [°C] | decomposition temperature Td [2] [°C] | solubility (physchem; solubility L in chlorobenzene) [mg/mL] | solubility (physchem; solubility in Ethyl acetate) [mg/mL] | solubility (physchem; solubility in Tetrahydrofuran) [mg/mL] | solubility (physchem; solubility in Toluene) [mg/mL] | solubility (physchem; solubility in Anisole) [mg/mL] |
| --- | --- | --- | --- | --- | --- | --- | --- |
| COc1ccc(N(c2ccc(OC)cc2)c2ccc3c(c2)C(C)(C)c2cc(N(c4ccc(OC)cc4)c4ccc(-c5ccc(N(c6ccc(OC)cc6)c6ccc7c(c6)C(C)(C)c6cc(N(c8ccc(OC)cc8)c8ccc(OC)cc8)ccc6-7)cc5)cc4)ccc2-3)cc1 [ID518] | 150 | 430 | 400 to 800 (≈ 324 to 647 mM) | > 400 | 550 to 1100 (≈ 445 to 890 mM) | 160 to 240 (≈ 129 to 194 mM) |  |
| CCOc1ccc(N(c2ccc(C3=CCC(N(c4ccc(OC)cc4)c4ccc(-c5ccc(N(c6ccc(OC)cc6)c6ccc(-c7ccc(N(c8ccc(OCC)cc8)c8cccc9ccccc89)cc7)cc6)cc5)cc4)C=C3)cc2)c2cccc3ccccc23)cc1 (centres unmarked) [ID565] | 143 | 450 | > 900 | < 40 | > 850 | 400 to 800 (≈ 326 to 653 mM) | > 1000 |
| COc1ccc(N(c2ccc(OC)cc2)c2ccc(-c3ccc(N(c4ccc(OC)cc4)c4ccc(N(c5ccc(OC)cc5)c5ccc(-c6ccc(N(c7ccc(OC)cc7)c7ccc(OC)cc7)cc6)cc5)cc4)cc3)cc2)cc1 [ID446] | 120 | 430 | 1250 to 2500 (≈ 1160 to 2320 mM) | 50 to 65 (≈ 46.3 to 60.2 mM) | 1000 to 2000 (≈ 927 to 1850 mM) | > 460 |  |
| CCCCCCC1(CCCCCC)c2cc(N(c3ccc(OC)cc3)c3ccc(-c4ccc(N(c5ccc(OC)cc5)c5ccc(OC)cc5)cc4)cc3)ccc2-c2ccc(N(c3ccc(OC)cc3)c3ccc(-c4ccc(N(c5ccc(OC)cc5)c5ccc(OC)cc5)cc4)cc3)cc21 [ID450] | 105 | 420 | 900 to 1800 (≈ 674 to 1350 mM) |  |  |  |  |
| COc1ccc(N(c2ccc(OC)cc2)c2ccc(-c3ccc(N(c4ccc(OC)cc4)c4ccc5c(c4)c4cc(N(c6ccc(OC)cc6)c6ccc(-c7ccc(N(c8ccc(OC)cc8)c8ccc(OC)cc8)cc7)cc6)ccc4n5-c4ccccc4)cc3)cc2)cc1 [ID522] | 158 | 450 | 900 to 1400 (≈ 723 to 1120 mM) | 600 to 1200 (≈ 482 to 964 mM) | 400 to 600 (≈ 321 to 482 mM) | 490 to 980 (≈ 394 to 787 mM) |  |
| COc1ccc(N(c2ccc(OC)cc2)c2ccc(-c3ccc(N(c4ccccc4)c4ccc(-c5ccc(N(c6ccccc6)c6ccc(-c7ccc(N(c8ccc(OC)cc8)c8ccc(OC)cc8)cc7)cc6)cc5)cc4)cc3)cc2)cc1 [ID321] | 143 | 460 | 900 to 1150 (≈ 822 to 1050 mM) | 15 (≈ 13.7 mM) | > 240 | > 100 |  |
| COc1ccc(N(c2ccc(OC)cc2)c2ccc(-c3ccc(N(c4ccc(-c5ccc(N(c6ccc(-c7ccc(N(c8ccc(OC)cc8)c8ccc(OC)cc8)cc7)cc6)c6ccc7c(c6)C(C)(C)c6ccccc6-7)cc5)cc4)c4ccc5c(c4)C(C)(C)c4ccccc4-5)cc3)cc2)cc1 [ID369] | 154 | 460 | 300 to 450 (≈ 226 to 339 mM) | 140 to 280 (≈ 105 to 211 mM) | 100 to 150 (≈ 75.3 to 113 mM) | 140 to 170 (≈ 105 to 128 mM) |  |
| COc1ccc(N(c2ccc(OC)cc2)c2ccc(-c3ccc(N(c4ccc(OC)cc4)c4ccc(-c5ccc(N(c6ccc(OC)cc6)c6ccc(-c7ccc(N(c8ccc(OC)cc8)c8ccc(OC)cc8)cc7)cc6)cc5)cc4)cc3)cc2)cc1 [ID367] | 136 | 450 | 700 to 1000 (≈ 606 to 865 mM) | 70 to 80 (≈ 60.6 to 69.2 mM) | 370 to 550 (≈ 320 to 476 mM) | 320 to 500 (≈ 277 to 433 mM) | 450 to 700 (≈ 389 to 606 mM) |
| COc1ccc(C(c2ccc(OC)cc2)c2ccc(N(c3ccc(OC)cc3)c3ccc(-c4ccc(N(c5ccc(OC)cc5)c5ccc(N(c6ccc(OC)cc6)c6ccc(OC)cc6)cc5)cc4)cc3)cc2)cc1 [ID480] | 105 | 430 | > 280 |  |  |  |  |
| COc1ccc(N(c2ccc(OC)cc2)c2ccc(-c3ccc(N(c4ccc(OC)cc4)c4ccc5c(c4)C(C)(C)c4cc(N(c6ccc(OC)cc6)c6ccc(-c7ccc(N(c8ccc(OC)cc8)c8ccc(OC)cc8)cc7)cc6)ccc4-5)cc3)cc2)cc1 [ID447] | 137 | 430 | 900 to 1800 (≈ 753 to 1510 mM) | > 660 | 750 to 1500 (≈ 627 to 1250 mM) | > 520 |  |
| COc1ccc(N(c2ccc(-c3ccc(N(c4ccc(OC)cc4)c4ccc(-c5ccc(N(c6ccc(OC)cc6)c6ccc7c(c6)C(C)(C)c6ccccc6-7)cc5)cc4)cc3)cc2)c2ccc(-c3ccc(N(c4ccc(OC)cc4)c4ccc5c(c4)C(C)(C)c4ccccc4-5)cc3)cc2)cc1 [ID453] | 156 | 440 | 450 to 700 (≈ 339 to 527 mM) | 40 (≈ 30.1 mM) | 340 to 680 (≈ 256 to 512 mM) | 170 to 230 (≈ 128 to 173 mM) |  |
| COc1ccc(N(c2ccc(OC)cc2)c2ccc(-c3ccc(N(c4ccc(OC)cc4)c4ccc5c(c4)Cc4cc(N(c6ccc(OC)cc6)c6ccc(-c7ccc(N(c8ccc(OC)cc8)c8ccc(OC)cc8)cc7)cc6)ccc4-5)cc3)cc2)cc1 [ID523] | 141 | 450 | 1250 to 2500 (≈ 1070 to 2140 mM) | 240 to 480 (≈ 206 to 411 mM) | 400 to 550 (≈ 343 to 471 mM) | 900 to 1800 (≈ 771 to 1540 mM) |  |
| CCCCC(CC)COc1ccc(N(c2ccc(-c3ccc(N(c4ccc(OC)cc4)c4ccc(OC)cc4)cc3)cc2)c2ccc(-c3ccc(N(c4ccc(OCC(CC)CCCC)cc4)c4ccc(-c5ccc(N(c6ccc(OC)cc6)c6ccc(OC)cc6)cc5)cc4)cc3)cc2)cc1 (centres unmarked) [ID568] | 65 | 360 | > 650 |  |  |  |  |
| COc1ccc(N(c2ccc(OC)cc2)c2ccc(-c3ccc(N(c4ccc(-c5ccc(N(c6ccc(-c7ccc(N(c8ccc(OC)cc8)c8ccc(OC)cc8)cc7)cc6)c6cc(F)c(OC)c(F)c6)cc5)cc4)c4cc(F)c(OC)c(F)c4)cc3)cc2)cc1 [ID629] | 134 | 430 | > 2000 | > 1300 | > 2000 | > 1500 | > 1500 |
| COc1ccc(N(c2ccc(OC)cc2)c2ccc3c(c2)C2(c4cc(N(c5ccc(OC)cc5)c5ccc(OC)cc5)ccc4-3)c3cc(N(c4ccc(OC)cc4)c4ccc(OC)cc4)ccc3-c3ccc(N(c4ccc(OC)cc4)c4ccc(OC)cc4)cc32)cc1 [spiro-MeOTAD, 2,2′,7,7′-tetrakis(N,N-di-p-methoxyphenyl-amine)-9,9′-spirobifluorene, reference compound] | 120 | 440 | 200 to 230 (≈ 163 to 188 mM) | < 6 | 120 to 160 (≈ 97.9 to 131 mM) | 100 (≈ 81.6 mM) | 65 to 75 (≈ 53 to 61.2 mM) |
| COc1ccc(N(c2ccc(OC)cc2)c2ccc(-c3ccc(N(c4ccc(OC)cc4)c4ccc(C5(c6ccc(N(c7ccc(OC)cc7)c7ccc(-c8ccc(N(c9ccc(OC)cc9)c9ccc(OC)cc9)cc8)cc7)cc6)CCCCC5)cc4)cc3)cc2)cc1 [ID452] | 123 | 450 | 650 to 1300 (≈ 525 to 1050 mM) |  | 300 to 600 (≈ 242 to 485 mM) | > 270 |  |
| COc1ccc(N(c2ccc(C)cc2)c2ccc(-c3ccc(N(c4ccc(OC)cc4)c4ccc(-c5ccc(N(c6ccc(OC)cc6)c6ccc(-c7ccc(N(c8ccc(C)cc8)c8ccc(OC)cc8)cc7)cc6)cc5)cc4)cc3)cc2)cc1 [ID572] | 138 | 450 | > 900 | 60 to 100 (≈ 53.4 to 89 mM) | > 800 | > 500 | > 400 |
| CCN(CC)c1ccc(N(c2ccc(-c3ccc(N(c4ccc(OC)cc4)c4ccc(OC)cc4)cc3)cc2)c2ccc(-c3ccc(N(c4ccc(-c5ccc(N(c6ccc(OC)cc6)c6ccc(OC)cc6)cc5)cc4)c4ccc(N(CC)CC)cc4)cc3)cc2)cc1 [ID521] | 138 | 420 | 400 to 550 (≈ 323 to 444 mM) | 90 to 110 (≈ 72.7 to 88.9 mM) | 440 to 580 (≈ 356 to 469 mM) | 500 to 1000 (≈ 404 to 808 mM) |  |
| COc1ccc(N(c2ccc(OC)cc2)c2ccc(-c3ccc(N(c4ccc(OC)cc4)c4ccc(-c5ccc(N(c6ccc(OC)cc6)c6ccc(-c7ccc(N(c8ccc(OC)cc8)c8ccc(OC)cc8)cc7)cc6)c(C)c5)cc4C)cc3)cc2)cc1 [ID631] | 134 | 440 | > 1300 | 700 to 1400 (≈ 591 to 1180 mM) | 1000 to 2000 (≈ 845 to 1690 mM) | 500 to 1000 (≈ 422 to 845 mM) | 500 to 1000 (≈ 422 to 845 mM) |
| COc1ccc(N(c2ccc(OC)cc2)c2ccc(N(c3ccccc3)c3ccc(-c4ccc(N(c5ccccc5)c5ccc(N(c6ccc(OC)cc6)c6ccc(OC)cc6)cc5)cc4)cc3)cc2)cc1 [ID320] | 96 | 450 | 760 to 1000 (≈ 806 to 1060 mM) | 140 (≈ 148 mM) | > 280 | 280 (≈ 297 mM) |  |
| COc1ccc(N(c2ccc(-c3ccc(N(c4ccc(OC)cc4)c4ccc(-c5ccc(N(c6ccc(OC)cc6)c6ccc(C)c(C)c6)cc5)cc4)cc3)cc2)c2ccc(-c3ccc(N(c4ccc(OC)cc4)c4ccc(C)c(C)c4)cc3)cc2)cc1 [ID519] | 128 | 450 | 450 to 900 (≈ 391 to 782 mM) | > 460 | > 500 | 240 to 350 (≈ 208 to 304 mM) |  |
| COc1ccc(N(c2ccc(OC)cc2)c2ccc(-c3ccc(N(c4ccc(-c5ccc(N(c6ccc(-c7ccc(N(c8ccc(OC)cc8)c8ccc(OC)cc8)cc7)cc6)c6ccc(C(C)(C)C)cc6)cc5)cc4)c4ccc(C(C)(C)C)cc4)cc3)cc2)cc1 [ID368] | 154 | 460 | 500 to 1000 (≈ 414 to 828 mM) | > 380 | 180 to 360 (≈ 149 to 298 mM) | > 240 |  |
| CCCCCCC1(CCCCCC)c2cc(N(c3ccc(OCC(CC)CCCC)cc3)c3ccc(-c4ccc(N(c5ccc(OC)cc5)c5ccc(OC)cc5)cc4)cc3)ccc2-c2ccc(N(c3ccc(OCC(CC)CCCC)cc3)c3ccc(-c4ccc(N(c5ccc(OC)cc5)c5ccc(OC)cc5)cc4)cc3)cc21 (centres unmarked) [ID569] | 47 | 440 | 400 to 800 (≈ 261 to 522 mM) |  |  |  |  |
